Test results from US20090318568A1, “ADHERENT COATING FOR TISSUE SURFACE AND/OR TRANS-TISSUE SURFACE SUBSTANCE DELIVERY” (priority 2009, published 2009).

Assays:
[1] = Analysis of the paclitaxel residue dissolved in 1,2-propylene glycol; format: physicochemical; details: 100 g 1,2-propylene glycol, 135° C. for 45 min
Protocol: The residue from filtering the glycerol solution of EXAMPLE 1 was added to 100 g of 1,2-propylene glycol, and the resulting mixture warmed to 50° C.; little of the solid material appeared to dissolve. The mixture was then placed in an oven at 135° C. and heated for 45 min.

[2] = Analysis of the filtered paclitaxel solution in glycerol + 1,2-propylene glycol; format: physicochemical; details: 100 mg paclitaxel in 100 g USP glycerol warmed to about 50° C.
Protocol: To this mixture, 60 g of 1,2-propylene glycol was added; the new mixture was mixed, and warmed further.

**Q.** Which results are given for `CC(=O)O[C@H]1C(=O)[C@@]2(C)[C@H]([C@H](OC(=O)c3ccccc3)[C@]3(O)C[C@H](OC(=O)[C@H](O)[C@@H](NC(=O)c4ccccc4)c4ccccc4)C(C)=C1C3(C)C)[C@]1(OC(C)=O)CO[C@@H]1C[C@@H]2O` [paclitaxel]?
**A.** concentration in solution [1]: 230 µg/mL; dissolution in glycerol (observation) [2]: little of the paclitaxel appeared to dissolve
